For the experiment, the system named is Helicoverpa zea. Description: Antifeedant activity against Helicoverpa zea (corn earworm) at 250 mg/ml at 28 degC day/24 degC night measured after 6 days. The format is functional, organism-based.

The source made the active and inactive calls. The calls are words filed in the database; no cut-off is given here.

For `O=C(O)c1ccc(O)cc1`, the outcome was inactive.
With `Oc1ccc(C(O)c2ccc(O)cc2)cc1`, the result was inactive.

The record behind these values is ChEMBL document CHEMBL3044817, “Antifeedant and mosquitocidal compounds from Delphinium x cultorum cv. Magic fountains flowers” (J Agric Food Chem, 2000).
